Source: article PMC11786100, “Chronic GIPR agonism results in pancreatic islet GIPR functional desensitisation” (Molecular Metabolism, 2025)
Where two headings read alike, the source gives them in different places.

Experiments:
dispersed islet cells = test: cADDis cAMP concentration-response in dispersed islets; format: cell-based, mouse; conditions: for EC50: three-parameter fit, n=5, read-out: calculated EC50, cAMP in dispersed islets
Method: (§1) Primary cultures of mouse hypothalamic neurons and dispersed pancreatic islets were transduced with the Green Up cADDis biosensor (Montana Molecular, US). Pancreatic islets from CAMPER^Pdx−1-CreERT2 and CAMPER^Som-Cre mice were not transduced. Cells were pre-treated with peptides as specified, dissolved in culture media. Following 4 h or overnight incubation and a 1-hour washout period, cells were imaged using an epifluorescence microscope at baseline (t = 3 min), following peptide addition (t = 10 min, unless specified otherwise), and following 3-isobutyl-1-methylxanthine (IBMX) (500 μM) and forskolin (FSK) (50 μM) addition (t = 3 min) to maximally stimulate the sensor. In pre-treatment experiments, islet cell fluorescence was normalised to the IBMX/FSK response which was set as 100%. In non-pre-treatment experiments, islet and neuronal cell fluorescence was normalised to both the baseline and IBMX/FSK response. The area-under-the-curve (AUC) for each cell was quantified. Full details of isolation, transduction, plating, imaging and image analysis is provided in the supplementary methods.
Dispersed islets: A cell suspension of dispersed islets in RPMI-1640 + 10% FBS + 1% P/S (islet complete media) was seeded onto square 96 well µ-plates (Ibidi, UK), coated with 0.01% poly-D-lysine hydrobromide (Sigma-Aldrich, UK) and 25 µg/ml mouse laminin (Thermo Fisher, UK). For cADDis experiments, cells were transduced with the Green Up cADDis biosensor (15 μL of cADDis, 1.5 μL of sodium butyrate per well: Montana Molecular, US). Cells were incubated overnight (37°C, 95%:5% O2:CO2 ratio).
Cells were imaged in Krebs buffer with 6 mM glucose and 0.1% BSA (unless 10% FBS was specified) at 37°C using an automated epifluorescence microscope (modified Nikon Ti-2E with LED illumination). Multiple fields of view (FOV) were imaged in parallel (for islets, multiple wells of a 96 well plate were imaged in parallel), allowing hundreds to thousands of cells to be imaged every minute throughout the time course. For all acquisitions, the first three minutes were baseline recording pre-peptide addition and the last three minutes were a positive control following IBMX (500 μM) and forskolin (50 μM) addition to maximally stimulate the sensor.
cAMP quantification from the raw islet/neuronal images was performed using Fiji v1.54f (NIH). For each acquisition, a flat-field (BaSiC [3*]) correction was applied, and intensity thresholding enabled cell-containing regions to be identified as regions-of-interest (ROIs). The fluorescence intensity of each ROI was measured at each time point. In pre-treatment experiments, islet cell fluorescence was normalised to the maximal IBMX/FSK response which was set as 100%. For non-pre-treatment experiments, neuronal and islet cell fluorescence were normalised to both the baseline and maximal IBMX/FSK response. The AUC during peptide stimulation for each cell was quantified. Neurons with an AUC greater than 75 (representing a response 15 % of the maximum IBMX/FSK response) were deemed responder neurons.
We aimed to determine appropriate pre-treatment doses of GIPR agonists which would produce detectable cAMP responses, indicating target engagement, and were compatible with an extended incubation in complete medium, which could influence ligand availability via binding to serum proteins. We first performed concentration-response analysis in dispersed islets transduced with cADDis in the presence of 10% FBS (Figure S2A, B, D, E).
To determine a sensible re-challenge dose of GIPR agonists, a further concentration-response analysis was conducted in cADDis-transduced dispersed islets in imaging buffer (Krebs buffer + 6 mM glucose + 0.1% BSA, i.e. without FBS) (Figure S2C, F). […] Therefore, 1 μM of GIP108 and 100 nM of GIP were chosen as peri-maximal re-stimulation doses for the remaining islet cAMP assays.
GLP-1R agonist pre-treatment dose selection was performed concurrently with GIPR agonist dose selection.

[1] = Peptide stability in complete medium with dispersed islet cells (cAMP bioactivity assay); format: in vitro ADME, mouse
Method: AD-293 cells were added to a 12-well plate and maintained in 2 ml complete DMEM. 1 μg of specified plasmid DNA was added to each well alongside Lipofectamine 2000 (Thermo Fisher, UK). cAMP production was quantified 24 hours following transfection using homogenous time resolved fluorescence (HTRF), specifically the cAMP-Gs Dynamic 2 kit (Cisbio, France). Peptides and cells were diluted in DMEM + 1% P/S + 0.1% BSA. For peptide stability testing, cells, fresh peptide and peptide incubated with dispersed islet cells were diluted in RPMI-1640 (Thermo Fisher, UK) + 10% FBS + 1% P/S. 10 μl of peptide and 10 μl of cell suspension were added in duplicate to an opaque 96-well plate (Grenier Bio-One, Austria) and incubated at 37°C for 30 minutes. 10 μl of cAMP-d2 and anti-cAMP cryptate, both diluted in lysis buffer, were added in quick succession as per the manufacturer’s protocol. The plates were then incubated at room temperature for 45 minutes and read using the SpectraMax i3x (Molecular Devices, US).
Three-parameter curve fitting was applied.

GLP-1R = target: T1, GLP-1R (Mus musculus, UniProt O35659); test: Ex vivo islet GLP-1R desensitisation (pre-treat/washout/rechallenge cAMP); format: cell-based; conditions: dispersed islets, cADDis
T1 construct: from tissue; host or cells: dispersed mouse pancreatic islets
T1 sequence (O35659 22-463): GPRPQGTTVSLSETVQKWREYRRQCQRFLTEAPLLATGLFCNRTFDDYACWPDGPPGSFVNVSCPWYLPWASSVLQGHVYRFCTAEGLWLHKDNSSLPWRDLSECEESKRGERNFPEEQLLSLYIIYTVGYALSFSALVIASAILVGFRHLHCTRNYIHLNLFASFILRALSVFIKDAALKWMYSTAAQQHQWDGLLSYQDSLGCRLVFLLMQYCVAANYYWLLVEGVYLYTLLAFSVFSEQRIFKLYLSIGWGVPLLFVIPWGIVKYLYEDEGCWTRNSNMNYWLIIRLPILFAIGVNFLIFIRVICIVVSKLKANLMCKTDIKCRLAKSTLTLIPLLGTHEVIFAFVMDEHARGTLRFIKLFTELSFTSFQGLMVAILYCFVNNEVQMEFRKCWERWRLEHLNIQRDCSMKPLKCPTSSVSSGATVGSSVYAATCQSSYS
Method: as §1, with “Full details of isolation, transduction, plating, imaging and image analysis is provided in the supplementary methods.” left out
cAMP quantification from the raw islet/neuronal images was performed using Fiji v1.54f (NIH). […] The fluorescence intensity of each ROI was measured at each time point. In pre-treatment experiments, islet cell fluorescence was normalised to the maximal IBMX/FSK response which was set as 100%. […] The AUC during peptide stimulation for each cell was quantified. […]

[2] = tested on: murine hypothalamic neurons; test: cADDis cAMP imaging in primary hypothalamic neurons; format: cell-based, mouse; conditions: 5-minute stimulation, n=4
Method: as §1
Primary cultures of hypothalamic neurons were prepared from 6-week-old male and female mice as described previously [2*]. A minor difference was that the neuronal pellet was resuspended in Neurobasal-A medium containing 0.25% Glutamax, 2% B27 and 25 ng/ml NGF (all Thermo Fisher, UK) (neuronal culture media).
Hypothalamic neurons: 100 μL cell suspension of neurons in neuronal culture media was seeded on 35 mm petri dish (MatTek Corporation), pre-coated with 0.01% poly-D-lysine hydrobromide. […]
cAMP quantification from the raw islet/neuronal images was performed using Fiji v1.54f (NIH). […] The fluorescence intensity of each ROI was measured at each time point. In pre-treatment experiments, islet cell fluorescence was normalised to the maximal IBMX/FSK response which was set as 100%. For non-pre-treatment experiments, neuronal and islet cell fluorescence were normalised to both the baseline and maximal IBMX/FSK response. The AUC during peptide stimulation for each cell was quantified. […]

[3] = imaging buffer (Krebs + 6 mM glucose + 0.1% BSA, without FBS)
[4] = in the presence of 10% FBS, stepwise addition

For `CC[C@H](C)[C@H](NC(=O)[C@H](CO)NC(=O)[C@H](Cc1ccc(O)cc1)NC(=O)[C@H](CC(=O)O)NC(=O)[C@H](CO)NC(=O)[C@@H](NC(=O)[C@H](Cc1ccccc1)NC(=O)[C@@H](NC(=O)CNC(=O)[C@H](CCC(=O)O)NC(=O)C(C)(C)NC(=O)[C@@H](N)Cc1ccc(O)cc1)[C@@H](C)O)[C@@H](C)CC)C(=O)N[C@@H](C)C(=O)N[C@@H](CC(C)C)C(=O)N[C@@H](CC(=O)O)C(=O)N[C@@H](CCCCN)C(=O)N[C@H](C(=O)N[C@@H](Cc1c[nH]cn1)C(=O)N[C@@H](CCC(N)=O)C(=O)N[C@@H](CCC(N)=O)C(=O)N[C@@H](CC(=O)O)C(=O)N[C@@H](Cc1ccccc1)C(=O)N[C@H](C(=O)N[C@@H](CC(N)=O)C(=O)N[C@@H](Cc1c[nH]c2ccccc12)C(=O)N[C@@H](CC(C)C)C(=O)N[C@@H](CC(C)C)C(=O)N[C@@H](C)C(=O)N[C@@H](CCC(N)=O)C(=O)N[C@@H](CCCCN)C(=O)NCC(=O)N[C@@H](CCCCNC(=O)CC[C@H](NC(=O)CCCCCCCCCCCCCCCCCCC(=O)O)C(=O)O)C(=O)N[C@@H](CCCCN)C(=O)N[C@@H](CC(N)=O)C(=O)N[C@@H](CC(=O)O)C(=O)N[C@@H](Cc1c[nH]c2ccccc12)C(=O)N[C@@H](CCCCN)C(=O)N[C@@H](Cc1c[nH]cn1)C(=O)N[C@@H](CC(N)=O)C(=O)N[C@H](C(=O)N[C@H](C(=O)N[C@@H](CCC(N)=O)C(=O)O)[C@@H](C)O)[C@@H](C)CC)C(C)C)[C@@H](C)CC` [GIP108], the “doses above which cAMP responses were detectable” value (dispersed islet cells; [3]) was “above 10 nM”, the EC50 (dispersed islet cells; imaging buffer (Krebs buffer + 6 mM glucose + 0.1% BSA, without FBS)) was 218 nM and the “doses above which cAMP responses were detectable” value (dispersed islet cells; in the presence of 10% FBS) was “above 100 nM”. For the same compound, the EC50 (dispersed islet cells; [4]) was 1960 nM, the “stability at 24 hours” value ([1]; 1 μM in complete medium with dispersed islet cells, cAMP bioactivity in mouse GIPR AD-293 cells) was “remained partially stable at 24 hours” and the “concentration remaining from 500 nM after 24 hours” value ([1]; peptide at 1 μM in complete medium (RPMI-1640 + 10% FBS + 1% P/S) with dispersed islet cells, 24 h, concentrations halved during assay, read-out cAMP in mouse GIPR-expressing AD-293 cells, n=4) was 215 nM. For the same compound, the “cAMP response to GLP-1 (100 nM) after GIP108 pre-treatment” value (GLP-1R; 24-hour pre-treatment with GIP108 (1 μM), n=3) was “small but significant decrease” and the “cAMP response of hypothalamic neurons” value ([2]; 100 nM and 1 μM) was “failed to show detectable responses”.
For GLP-1(7–36)·NH2, the “doses above which cAMP responses were detectable” value (dispersed islet cells; [3]) was “above 0.1 nM”, the “doses above which cAMP responses were detectable” value (dispersed islet cells; in the presence of 10% FBS) was “above 0.1 nM” and the EC50 (dispersed islet cells; [4]) was 0.295 nM. For the same compound, the “concentration remaining from 500 nM after 24 hours” value [1] was 0.177 nM, the “GLP-1R desensitisation after 4 h pre-treatment” value (GLP-1R; pre-treatment GLP-1 (10 nM), rechallenge GLP-1 (1 nM), n = 3) was “partial GLP-1R desensitisation, this was not statistically significant” and the “cAMP response of hypothalamic neurons” value ([2]; 10 and 100 nM) was “significant responses”.
